Measured values from ChEMBL document CHEMBL4184301, “Two new coumarins and a new xanthone from the leaves of Rhizophora mucronata” (Bioorg Med Chem Lett, 2018).

Assays:
[1] = Selectivity index, ratio of CC50 for mouse […] cells to IC50 for human HL60 cells; type: toxicity; details: NIH/3T3 cells (printed […]) and HL60 cells, read-out: Ratio CC50/IC50
[2] = Cytotoxicity against mouse NIH/3T3 cells after 48 hrs by CCK8 assay; type: cell-based, NIH3T3
HeLa = assay: Antiproliferative activity against human HeLa cells after 48 hrs by CCK8 assay; type: functional, cell-based
HL-60 = assay: Antiproliferative activity against human HL60 cells after 48 hrs by CCK8 assay; type: functional, cell-based; details: HL-60, 48 h

IC50 (HeLa) [µM] | IC50 (HL-60) [µM] | Structure (SMILES) | selectivity ratio [1] | CC50 at 48 h [2] [µM]
36.4 | 2.2 | C/C=C(\C)C(=O)c1c(O)c(/C(=C/C(=O)O)c2ccccc2)c2c(c1OC)C=CC(C)(C)O2 | 19.2 | 41.1
8.3 | 35.3 | C[C@H]1Oc2c3c(c4c(-c5ccccc5)cc(=O)oc4c2C(=O)[C@@H]1C)OC(C)(C)C=C3 | – | –
21.6 | > 60 | C[C@@H]1C(=O)c2c(c3c(c4c(-c5ccccc5)cc(=O)oc24)OC(C)(C)C=C3)O[C@@H]1C | – | –
37.1 | 6.3 | CC(C)=CCc1c(O)cc2oc3c(O)cccc3c(=O)c2c1O | – | –
14.5 | 36.8 | C=C(C)C(O)Cc1c(O)cc2c(=O)c3cccc(O)c3oc2c1O (stereo unspecified) | – | –
29.9 | 2.6 | C/C=C(\C)C(=O)c1c(OC)c2c(c3c(-c4ccccc4)cc(=O)oc13)OC1C2C1(C)C (stereo unspecified) | 8.6 | 22.3
3.8 | 12.9 | CO[C@H]1c2c(c3c(c4c(-c5ccccc5)cc(=O)oc24)OC(C)(C)C=C3)O[C@H](C)[C@H]1C | – | –
42.8 | 18.3 | C/C=C(/C)C(=O)c1c2c(c(OC)c3c(-c4ccccc4)cc(=O)oc13)C=CC(C)(C)O2 | – | –
26 | 2.7 | CC1(C)C=Cc2c(cc3oc4c(O)cccc4c(=O)c3c2O)O1 | 9.4 | 25.3
> 60 | 24.5 | C[C@H]1Oc2c3c(c(C(=CC(=O)O)c4ccccc4)c(O)c2C(=O)[C@@H]1C)OC(C)(C)C=C3 (mixture of isomers) | – | –
33 | 10.7 | COC(=O)C=C(c1ccccc1)c1c(O)c2c(c3c1OC(C)(C)C=C3)O[C@H](C)[C@@H](C)C2=O (mixture of isomers) | – | –
21.2 | 35.6 | C[C@@H]1C(=O)c2c(O)c(C(=CC(=O)O)c3ccccc3)c3c(c2O[C@@H]1C)C=CC(C)(C)O3 (mixture of isomers) | – | –
> 60 | > 60 | O=C(O)c1cccc(O)c1O [2,3-DIHYDROXYBENZOIC ACID] | – | –
5.3 | 51.2 | O=c1cc(-c2ccc(O)c(-c3c(O)cc(O)c4c(=O)cc(-c5ccc(O)cc5)oc34)c2)oc2cc(O)cc(O)c12 [AMENTOFLAVONE] | – | –
21.3 | 22.3 | O=c1cc(-c2ccc(O)cc2)oc2cc(O)cc(O)c12 [APIGENIN] | – | –
4.4 | 10.1 | CC(C)=CCc1c2c(c3oc(=O)cc(-c4ccccc4)c3c1O)C(=O)[C@H](C)[C@@H](C)O2 [BRASIMARIN C] | – | –
4.8 | 1 | CC1(C)C=Cc2c(cc3oc4c(O)c(O)ccc4c(=O)c3c2O)O1 [JACAREUBIN] | 10.2 | 10.2
1.13 | 0.19 | CO[C@@]12[C@H](COC(N)=O)C3=C(C(=O)C(C)=C(N)C3=O)N1C[C@@H]1N[C@@H]12 [MITOMYCIN] | – | –
0.023 | 0.0026 | CC(=O)O[C@H]1C(=O)[C@@]2(C)[C@H]([C@H](OC(=O)c3ccccc3)[C@]3(O)C[C@H](OC(=O)[C@H](O)[C@@H](NC(=O)c4ccccc4)c4ccccc4)C(C)=C1C3(C)C)[C@]1(OC(C)=O)CO[C@@H]1C[C@@H]2O [PACLITAXEL] | – | –
